According to publication PMC8308021, “Indole- and Pyrazole-Glycyrrhetinic Acid Derivatives as PTP1B Inhibitors: Synthesis, In Vitro and In Silico Studies” (Molecules, 2021):
“Also recorded” adds a separate entry of the source.

Experiments:
PTP1B [1] = target: T1, PTP1B (Homo sapiens, UniProt P18031); assay: PTP1B inhibitory assay (pNPP, spectrocolorimetric); format: biochemical; details: pNPP substrate; three independent determinations
T1 sequence (P18031 1-435): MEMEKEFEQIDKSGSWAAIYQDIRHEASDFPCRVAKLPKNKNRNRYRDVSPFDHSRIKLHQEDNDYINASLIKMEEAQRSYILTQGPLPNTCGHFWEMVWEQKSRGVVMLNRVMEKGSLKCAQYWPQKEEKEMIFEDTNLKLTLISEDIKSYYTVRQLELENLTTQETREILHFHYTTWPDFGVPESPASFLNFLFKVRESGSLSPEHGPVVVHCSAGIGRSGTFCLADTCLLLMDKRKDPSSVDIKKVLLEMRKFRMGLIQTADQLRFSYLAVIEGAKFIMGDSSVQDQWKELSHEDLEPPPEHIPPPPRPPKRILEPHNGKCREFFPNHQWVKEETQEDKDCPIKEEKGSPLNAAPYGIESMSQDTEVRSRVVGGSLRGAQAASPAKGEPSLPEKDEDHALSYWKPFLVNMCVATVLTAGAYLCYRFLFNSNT
Procedure: To test the inhibitory activity of the compounds against PTP1B, a spectrocolorimetric method previously described was employed. The compounds and positive control were dissolved in DMSO or buffer solution [50 mM; Tris-HCI Buffer, pH 6.8], DL-dithiothreitol 1.5 mM, all from Sigma–Aldrich, St. Louis, MO, USA. Aliquots of 0–10 μL of testing compounds (triplicated) were incubated for 10 min at 37 °C with 85 μL of enzyme stock solution (3 μM) in buffer solution. After incubation, 5 μL of the substrate p-nitrophenyl phosphate (pNPP, 0.5 mM, Sigma–Aldrich, St. Louis, MO, USA) were added and incubated a further 25 min at 37 °C; then, the absorbance was recorded at 415 nm.

PTP1B [2] = target: T1, PTP1B; assay: Enzyme kinetics of PTP1B inhibition; format: biochemical; details: for Inhibition Type: best fit of competitive vs non-competitive model, Lineweaver-Burk; for Ki: non-linear regression of saturation curves at fixed inhibitor concentrations
Procedure: The kinetic studies were carried out under the same conditions described above. Different saturation curves were constructed at fixed inhibitor concentrations. The different inhibitor concentrations were determined based on the previously determined IC50 for each compound. Subsequently, the data obtained were analyzed through a non-linear regression, using OriginPro version 2018 (64-bit) SR1 (Northamton MA, USA, https://www.originlab.com) (accessed on 2 April 2021), adjusting to the following mathematical models:
And non-competitive: y=Vm×s^nh/(1+i/Ki)×S05^nh+(1+i/Ki)×s^nh where Vm is the maximum velocity, S and i are the concentration of substrate and inhibitor, respectively; Ki is the inhibition constant, and nh is the number of Hill.
Additionally, Lineweaver–Burk graphs were constructed to visualize the type of inhibition graphically.

SMILES | IC50 (PTP1B [1]) | Inhibition Type (PTP1B [2]) | Ki (PTP1B [2]) | melting point | Inhibition Type (PTP1B [2]; listed as ursolic acid)
CC1(C)[C@@H](OC(=O)CCC(=O)O)CC[C@]2(C)[C@H]3C(=O)C=C4[C@@H]5C[C@@](C)(C(=O)O)CC[C@]5(C)CC[C@@]4(C)[C@]3(C)CC[C@@H]12 [CA, carbenoxolone, reference compound] | 69.7 ± 6.98 µM | – | – | – | –
CC(C)CCC[C@@H](C)[C@H]1CC[C@H]2[C@@H]3C[C@@H](NCCCNCCCCNCCCN)[C@H]4C[C@@H](O)CC[C@]4(C)[C@H]3CC[C@]12C [CL, claramine] | 13.7 ± 0.11 µM | non-competitive inhibition | 15.4 ± 1.7 µM | – | –
CC1(C)c2[nH]c3ccccc3c2C[C@@]2(C)C1CC[C@]1(C)C2C(=O)C=C2C3C[C@@](C)(C(=O)O)CC[C@]3(C)CC[C@]21C (stereo partly drawn) [Compound 4a] | 6.6 ± 0.13 µM | – | – | 245 to 248 °C | –
COc1ccc2[nH]c3c(c2c1)C[C@@]1(C)C(CC[C@]2(C)C1C(=O)C=C1C4C[C@@](C)(C(=O)O)CC[C@]4(C)CC[C@]12C)C3(C)C (stereo partly drawn) [Compound 4b] | 4.3 ± 0.26 µM | – | – | 243 to 244 °C | –
Cc1ccc2[nH]c3c(c2c1)C[C@@]1(C)C(CC[C@]2(C)C1C(=O)C=C1C4C[C@@](C)(C(=O)O)CC[C@]4(C)CC[C@]12C)C3(C)C (stereo partly drawn) [Compound 4c] | 8.3 ± 0.1 µM | – | – | 268 to 271 °C | –
CC1(C)c2[nH]c3ccc(F)cc3c2C[C@@]2(C)C1CC[C@]1(C)C2C(=O)C=C2C3C[C@@](C)(C(=O)O)CC[C@]3(C)CC[C@]21C (stereo partly drawn) [Compound 4d] | 5.2 ± 0.22 µM | – | – | 245 to 248 °C | –
CC1(C)c2[nH]c3ccc(Cl)cc3c2C[C@@]2(C)C1CC[C@]1(C)C2C(=O)C=C2C3C[C@@](C)(C(=O)O)CC[C@]3(C)CC[C@]21C (stereo partly drawn) [Compound 4e] | 10.1 ± 0.21 µM | – | – | 256 to 258 °C | –
CC1(C(=O)O)CCC2(C)CCC3(C)C(=CC(=O)C4C5(C)Cc6c([nH]c7ccc(C(F)(F)F)cc67)C(C)(C)C5CCC43C)C2C1 (stereo not drawn) [Compound 4f] | 2.5 ± 0.03 µM | non-competitive inhibition; also recorded: non-competitive inhibitors | 3.9 ± 0.5 µM | – | –
CC1(C)c2c(cnn2-c2ccccc2)C[C@@]2(C)C1CC[C@]1(C)C2C(=O)C=C2C3C[C@@](C)(C(=O)O)CC[C@]3(C)CC[C@]21C (stereo partly drawn) [Compound 5a] | 5.1 ± 0.56 µM | – | – | 243 to 245 °C | –
COc1ccc(-n2ncc3c2C(C)(C)C2CC[C@]4(C)C(C(=O)C=C5C6C[C@@](C)(C(=O)O)CC[C@]6(C)CC[C@]54C)[C@@]2(C)C3)cc1 (stereo partly drawn) [Compound 5b] | 4.8 ± 0.2 µM | – | – | 208 to 211 °C | –
Cc1ccc(-n2ncc3c2C(C)(C)C2CC[C@]4(C)C(C(=O)C=C5C6C[C@@](C)(C(=O)O)CC[C@]6(C)CC[C@]54C)[C@@]2(C)C3)cc1 (stereo partly drawn) [Compound 5c] | 4.8 ± 0.3 µM | – | – | – | –
CC1(C)c2c(cnn2-c2ccc(F)cc2)C[C@@]2(C)C1CC[C@]1(C)C2C(=O)C=C2C3C[C@@](C)(C(=O)O)CC[C@]3(C)CC[C@]21C (stereo partly drawn) [Compound 5d] | 9.6 ± 0.2 µM | – | – | 260 to 264 °C | –
CC1(C)c2c(cnn2-c2ccc(Cl)cc2)C[C@@]2(C)C1CC[C@]1(C)C2C(=O)C=C2C3C[C@@](C)(C(=O)O)CC[C@]3(C)CC[C@]21C (stereo partly drawn) [Compound 5e] | 7.5 ± 0.22 µM | – | – | 263 to 266 °C | –
CC1(C(=O)O)CCC2(C)CCC3(C)C(=CC(=O)C4C5(C)Cc6cnn(-c7ccc(C(F)(F)F)cc7)c6C(C)(C)C5CCC43C)C2C1 (stereo not drawn) [Compound 5f] | 4.4 ± 0.07 µM | non-competitive inhibition; also recorded: non-competitive inhibitors | 4.6 ± 0.6 µM | 270 to 271 °C | –
Cc1ccc(C(=O)Nc2ccc(S(=O)(=O)O)c3cc(S(=O)(=O)O)cc(S(=O)(=O)O)c23)cc1NC(=O)c1cccc(NC(=O)Nc2cccc(C(=O)Nc3cc(C(=O)Nc4ccc(S(=O)(=O)O)c5cc(S(=O)(=O)O)cc(S(=O)(=O)O)c45)ccc3C)c2)c1 [SU, suramin] | – | competitive inhibition; also recorded: competitive inhibitor | – | – | –
C[C@H]1[C@H](C)CC[C@]2(C(=O)O)CC[C@]3(C)C(=CC[C@@H]4[C@@]5(C)CC[C@H](O)C(C)(C)[C@@H]5CC[C@]43C)[C@H]12 [UA, ursolic acid] | – | non-competitive inhibition | – | – | non-competitive inhibitor
